Source: patent publication US12037415B2, “Peptide and pharmaceutical composition for treating an eye disease comprising the same as an active pharmaceutical ingredient” (YuYu Pharma, Inc., priority 2017, dated 2024)
Starred links: 1 amine or outer side, 2 acyl side, 3 side chain; linkers in the order of their positions; H or OH if unused. Non-standard residues stand in square brackets, D forms with d. Residues, ends and D or L forms follow the SMILES beside them. ξ: configuration not given here. cisHyp = O=C(O)[C@@H]1C[C@H](O)CN1; X1 = O=C([C@H](CCCCO)N[*:1])[*:2]; Hyp = O=C(O)[C@@H]1C[C@@H](O)CN1; Ile(3ξ) = CCC(C)[C@H](N)C(=O)O; Thr(3ξ) = CC(O)[C@H](N)C(=O)O; pGlu = O=C1CC[C@@H](C(=O)O)N1; hSer = N[C@@H](CCO)C(=O)O

What was measured:
[1] = system: rats with dry eye syndrome (extraorbital lacrimal gland excision, ELGE); assay: Amount of tear secretion (Schirmer test, cobalt chloride paper) in rats with ELGE-induced dry eye syndrome; format: in vivo, rat; conditions: 0.3% solution (DS 3%), administration for 14 days
Source text: (§1) In order to evaluate the eye protection effect on dry eye syndrome by YDE-001 to YDE-028 prepared in Working Example 1, a total of 320 Sprague-Dawley-type male rats (OrientBio, Seungnam, Korea) were adapted for 7 days. Thereafter, dry eye syndrome was induced in 264 test rats through extraorbital lacrimal gland excision (hereinafter, ELGE). 8 test rats without the eye abnormality were subjected to a sham operation as a control group.
(§2) The rats were systemically anesthetized by inhaling a mixed gas of 2% to 3% of isoflurane (Hana Pharm. Co., Hwasung, Korea), 70% of N2O, and 28.6% of O2 using a rodent anesthesia machine (Surgivet, Waukesha, Wis., USA) and a ventilator (Model 687, Harvard Apparatus, Cambridge, UK). Thereafter, the extraorbital lacrimal gland located in the subdermal area above the masseter muscle and under the optic nerve was excised through a transverse incision in a size of 10 mm on the anterior part of the left ear tragus. The skin was sutured by a general method. […] After 6 days following the ELGE operation, confirmation was performed through the Schirmer test by measuring the amount of tear secretion whether dry eye syndrome had been induced. Meanwhile, each rat of the control group with the sham operation was checked for the presence and location of the extraorbital lacrimal gland through a skin incision, and the skin was then sutured without the excision thereof (FIG. 134).
(§3) In addition, in order to evaluate the eye protection effect on dry eye syndrome by YDE-029 to YDE-043 prepared in Working Example 1, a total of 200 Sprague-Dawley-type male rats (OrientBio, Seungnam, Korea) were adapted for 7 days. Dry eye syndrome was induced in 165 test rats through the ELGE. 8 test rats without the eye abnormality were subjected to the sham operation as a control group. The ELGE was carried out as described above.
(§4) For YDE-001 to YDE-028, YY-102 and the 28 YDE-series were each dissolved in physiological saline at a concentration of 3 mg/ml and administered at a dose of 5 μl/eye at 9:30 am and 3:30 pm daily for 14 days after 7 days from the ELGE operation for a total of 28 times. The DS solution was dissolved in physiological saline at a concentration of 30 mg/ml and administered at a dose of 5 μl/eye twice a day for 14 days after 7 days from the ELGE operation for a total of 28 times. For the sham control and the ELGE control groups, the same stimulation as the administration was applied. In order to prevent excessive eye dryness, the same volume of physiological saline was applied in the same manner in place of the test substances.
as §4, with “Further, For YDE-029” for “For YDE-001”, “Further, For YDE-029 to YDE-043,” for “For YDE-001 to YDE-028,”, “YDE-029 to YDE-043, YY-102 and” for “YDE-001 to YDE-028, YY-102 and”, “and the 15 YDE-series were” for “and the 28 YDE-series were”, “the test substances (FIG. 137).” for “the test substances.”
After 6 days from the ELGE surgery, the changes in the amount of tear secretion were measured at day 7 and day 14 after the administration of YDE-001 to YDE-043. The amount of tear secretion was measured by the […] travel distance of tears absorbed by cobalt chloride paper in a size of 1×15 mm (Toyo Roshi Kaisha, Japan).
The cobalt chloride paper was placed in the lateral canthus of a rat for 60 seconds to absorb tears (FIG. 139). The length of the area absorbed from the corner of the cobalt chloride paper was measured with an electronic digital caliper (Mytutoyo, Tokyo, Japan) (FIG. 138).

[2] = system: cornea of rats with dry eye syndrome (ELGE); assay: Corneal permeability of fluorescent dye (corneal damage) in rats with ELGE-induced dry eye syndrome; format: in vivo, rat; conditions: 0.3% solution, day 14 after the administration
Source text: as §1, §2, §3, §4
as §4, with “Further, For YDE-029” for “For YDE-001”, “Further, For YDE-029 to YDE-043,” for “For YDE-001 to YDE-028,”, “YDE-029 to YDE-043, YY-102 and” for “YDE-001 to YDE-028, YY-102 and”, “and the 15 YDE-series were” for “and the 28 YDE-series were”, “the test substances (FIG. 137).” for “the test substances.”
After YDE-001 to YDE-028 were each administered to the eyes […], the changes in the corneal permeability were checked.
In order to measure the corneal permeability, Zolethyl 50™ (Virbac Lab., Carros, France), an animal anesthetic, was intraperitoneally injected at a dose of 25 mg/kg. Thereafter, saline containing a 1% (v/v) fluorescent solution (fluorescein sodium salt, Tokyo Kasei Kogyo Co., Tokyo, Japan) was applied to the eyes at a dose of 5 μl/eye. The eyes thus treated were closed and fixed with a tape. After 1 hour, the remaining fluorescent solution was removed using a cotton swab (FIG. 142). […]

[3] = Stability in aqueous solution, amount of related substances under long-term storage conditions; format: physicochemical; conditions: glass vial, 25° C., 75% RH
Protocol: In order to confirm the stability of each test substance in an aqueous solution, […] of each sample was dissolved in 1 ml of water to a concentration of 1 mg/ml, which was then charged to a glass vial, plugged with a rubber cap, sealed with an aluminum cap, and stored under long-term storage conditions (25° C., 75% RH). The stability of the test substance was evaluated by measuring the amount of related substances at the time of one week, two weeks, four weeks, eight weeks, and twelve weeks under the long-term storage conditions.

[4] = study of YDE-001 to YDE-028 (Table 16)
[5] = study of YDE-029 to YDE-043 (Table 17)

| SMILES | Amount of tear secretion as compared with the ELGE control group ([1]; study of YDE-001 to YDE-028) | Amount of tear secretion as compared with the ELGE control group ([1]; study of YDE-029 to YDE-043) | Permeability of fluorescent dye (%) [2, 4] [%] | Amount of related substances (%; after 12 weeks) [3] [%] | Permeability of fluorescent dye (%) [2, 5] [%] |
| --- | --- | --- | --- | --- | --- |
| O=c1ccn([C@@H]2O[C@H](COP(=O)(O)OP(=O)(O)OP(=O)(O)OP(=O)(O)OC[C@H]3O[C@@H](n4ccc(=O)[nH]c4=O)[C@H](O)[C@@H]3O)[C@@H](O)[C@H]2O)c(=O)[nH]1 [DS, diquafosol sodium, reference compound] | increased | increased | – | – | – |
| CC(C)C[C@H](NC(=O)CNC(=O)[C@@H](NC(=O)[C@H](CCC(N)=O)NC(=O)CNC(=O)[C@@H]1C[C@@H](O)CN1)C(C)C)C(=O)N[C@@H](C)C(=O)NCC(=O)N1CCC[C@H]1C(=O)N[C@@H](CCCCN)C(=O)O [YDE-009, HyP-Gly-Gln-Val-Gly-Leu-Ala-Gly-Pro-Lys] (H-[Hyp]GQVGLAGPK-OH) | did not show any significant changes | – | 41.50 ± 7.86 | 4.71 | – |
| CCC(C)[C@H](NC(=O)[C@H](CC(=O)O)NC(=O)[C@H](CCC(N)=O)NC(=O)CNC(=O)[C@@H]1C[C@@H](O)CN1)C(=O)N[C@@H](CC(C)C)C(=O)N[C@@H](C)C(=O)NCC(=O)N1CCC[C@H]1C(=O)N[C@@H](CCCCN)C(=O)O (stereo partly drawn) [YDE-016, HyP-Gly-Gln-Asp-Ile-Leu-Ala-Gly-Pro-Lys] (H-[Hyp]GQD[Ile(3ξ)]LAGPK-OH) | – | – | 24.57 ± 10.34 | 11.33 | – |
| CC(C)C[C@H](NC(=O)[C@H](C)NC(=O)[C@H](CC(=O)O)NC(=O)[C@H](CCC(N)=O)NC(=O)CNC(=O)[C@@H]1C[C@@H](O)CN1)C(=O)N[C@@H](C)C(=O)NCC(=O)N1CCC[C@H]1C(=O)N[C@@H](CCCCN)C(=O)O [YDE-018, HyP-Gly-Gln-Asp-Ala-Leu-Ala-Gly-Pro-Lys] (H-[Hyp]GQDALAGPK-OH) | – | – | 38.19 ± 10.96 | 25.39 | – |
| CC(C)C[C@H](NC(=O)[C@H](CO)NC(=O)[C@H](CC(=O)O)NC(=O)[C@H](CCC(N)=O)NC(=O)CNC(=O)[C@@H]1C[C@@H](O)CN1)C(=O)N[C@@H](C)C(=O)NCC(=O)N1CCC[C@H]1C(=O)N[C@@H](CCCCN)C(=O)O [YDE-023, HyP-Gly-Gln-Asp-Ser-Leu-Ala-Gly-Pro-Lys] (H-[Hyp]GQDSLAGPK-OH) | – | – | 26.51 ± 8.18 | 30.66 | – |
| CC(C)C[C@H](NC(=O)[C@@H](NC(=O)[C@H](CC(=O)O)NC(=O)[C@H](CCC(N)=O)NC(=O)CNC(=O)[C@@H]1C[C@@H](O)CN1)C(C)O)C(=O)N[C@@H](C)C(=O)NCC(=O)N1CCC[C@H]1C(=O)N[C@@H](CCCCN)C(=O)O (stereo partly drawn) [YDE-024, HyP-Gly-Gln-Asp-Thr-Leu-Ala-Gly-Pro-Lys] (H-[Hyp]GQD[Thr(3ξ)]LAGPK-OH) | – | – | 30.63 ± 10.41 | 20.59 | – |
| CC(C)C[C@H](NC(=O)CNC(=O)[C@H](CCO)NC(=O)[C@H](CCC(N)=O)NC(=O)CNC(=O)[C@@H]1C[C@@H](O)CN1)C(=O)N[C@@H](C)C(=O)NCC(=O)N1CCC[C@H]1C(=O)N[C@@H](CCCCN)C(=O)O [YDE-026, HyP-Gly-Gln-Ser(Homo)-Gly-Leu-Ala-Gly-Pro-Lys] (H-[Hyp]GQ[hSer]GLAGPK-OH) | – | – | 22.63 ± 11.23 | 10.15 | – |
| CC(C)C[C@H](NC(=O)CNC(=O)[C@H](CC(C)C)NC(=O)[C@H](CCC(N)=O)NC(=O)CNC(=O)[C@@H]1C[C@@H](O)CN1)C(=O)N[C@@H](C)C(=O)NCC(=O)N1CCC[C@H]1C(=O)N[C@@H](Cc1ccc(O)cc1)C(=O)O [YDE-029, HyP-Gly-Gln-Leu-Gly-Leu-Ala-Gly-Pro-Tyr] (H-[Hyp]GQLGLAGPY-OH) | – | did not show any significant changes | – | – | 63.45 ± 11.57 |
| CC(C)C[C@H](NC(=O)[C@@H]1CCCN1C(=O)CNC(=O)[C@H](C)NC(=O)[C@H](CC(C)C)NC(=O)CNC(=O)[C@H](CC(C)C)NC(=O)[C@H](CCC(N)=O)NC(=O)CNC(=O)[C@@H]1C[C@@H](O)CN1)C(=O)O [YDE-030, HyP-Gly-Gln-Leu-Gly-Leu-Ala-Gly-Pro-Leu] (H-[Hyp]GQLGLAGPL-OH) | – | did not show any significant changes | – | – | 30.60 ± 13.61 |
| CC(C)C[C@H](NC(=O)CNC(=O)[C@H](CC(C)C)NC(=O)[C@H](CCC(N)=O)NC(=O)CNC(=O)[C@@H]1C[C@@H](O)CN1)C(=O)N[C@@H](C)C(=O)NCC(=O)N1CCC[C@H]1C(=O)N[C@@H](CCC(N)=O)C(=O)O [YDE-032, HyP-Gly-Gln-Leu-Gly-Leu-Ala-Gly-Pro-Gln] (H-[Hyp]GQLGLAGPQ-OH) | – | did not show any significant changes | – | – | 58.90 ± 19.81 |
| CC(C)C[C@H](NC(=O)CNC(=O)[C@H](CC(C)C)NC(=O)[C@H](CCC(N)=O)NC(=O)CNC(=O)[C@@H]1C[C@@H](O)CN1)C(=O)N[C@@H](C)C(=O)NCC(=O)N1CCC[C@H]1C(=O)N[C@@H](CCCCO)C(=O)O [YDE-033, HyP-Gly-Gln-Leu-Gly-Leu-Ala-Gly-Pro-Nle(6-OH)] (H-[Hyp]GQLGLAGP[X1]-OH) | – | did not show any significant changes | – | – | 60.55 ± 21.22 |
| CC(C)C[C@H](NC(=O)CNC(=O)[C@H](CC(C)C)NC(=O)[C@H](CCC(N)=O)NC(=O)CNC(=O)[C@@H]1C[C@H](O)CN1)C(=O)N[C@@H](C)C(=O)NCC(=O)N1CCC[C@H]1C(=O)N[C@@H](CCCCN)C(=O)O [YDE-034, Hyp(2S, 4S)-Gly-Gln-Leu-Gly-Leu-Ala-Gly-Pro-Lys] (H-[cisHyp]GQLGLAGPK-OH) | – | did not show any significant changes | – | – | 32.17 ± 12.94 |
| CC(C)C[C@H](NC(=O)CNC(=O)[C@H](CC(C)C)NC(=O)[C@H](CCC(N)=O)NC(=O)CNC(=O)[C@@H]1CCC(=O)N1)C(=O)N[C@@H](C)C(=O)NCC(=O)N1CCC[C@H]1C(=O)N[C@@H](CCCCN)C(=O)O [YDE-036, (5-oxo)Pro-Gly-Gln-Leu-Gly-Leu-Ala-Gly-Pro-Lys] ([pGlu]GQLGLAGPK-OH) | – | did not show any significant changes | – | – | 57.87 ± 22.91 |
| CC(C)C[C@H](NC(=O)CNC(=O)[C@H](CC(C)C)NC(=O)[C@H](CCC(N)=O)NC(=O)CNC(=O)[C@@H]1C[C@@H](O)CN1)C(=O)N[C@@H](C)C(=O)O [YDE-041, HyP-Gly-Gln-Leu-Gly-Leu-Ala] (H-[Hyp]GQLGLA-OH) | – | did not show any significant changes | – | – | 46.38 ± 26.65 |
